The experiment has as its system β-catenin in MSCs. In words: β-catenin agonism and cellular uptake of NPs in MSCs. Format: cell-based. As to conditions: over 5 days of treatment. Here is the method:
To investigate the intracellular accessibility of this NPs, polymers were labeled with fluorescein isothiocyanate (FITC) fluorophore and incubated with MSCs (FIG. 44B). […] To validate β-catenin agonism of NP delivered GSK3β inhibitor XXVII, cells were treated with free GSK3β inhibitor XXVII and NP delivered GSK3β inhibitor XXVII.

Turning to `CN1CCN(S(=O)(=O)c2ccc(-c3cnc(N)c(C(=O)Nc4cccnc4)n3)cc2)CC1` [GSK3β inhibitor XXVII, 3-amino-6-{4-[(4-methyl-1-piperazinyl)sulfonyl]phenyl}-N-(3-pyridinyl)-2-pyrazinecarboxamide], the “β-catenin agonism / activation” value was “potent agonist of β-catenin”.
